US20140179615A1, “Glutathione and Acetaminophen Composition and Preparation Method Thereof” (Hainan Weikang Pharmaceutical (Qianshan) Co., Ltd., priority 2012, published 2014)

Columns and labels:
[1] = test system: healthy male Kunming mice; assay: Impact on liver damage in mice: serum AST and ALT activity after gavage; assay type: in vivo; conditions: gavage 0.5 g/kg, 4 d at intervals of 24 h, mean ± spread, 10 mice per group
Protocol: 1. Materials: healthy male Kunming mice (weight: 20-22 g)
Divide 50 mice into 5 Groups: Control Group, Model Group, Embodiment Group 1, Embodiment Group 2 and Embodiment Group 3; 10 mice for each group. The mice are fed freely two days and fasted 16 h before the experiment. Experimental Treatment: the mice respectively of Control Group, Model Group, Embodiment Group 1, Embodiment Group 2 and Embodiment Group 3 are separately given normal saline, acetaminophen solution (0.5 g/kg), tablets (0.5 g/kg) made in Embodiment 1, oral solution (0.5 g/kg) made in Embodiment 2, and granules made in Embodiment 3 by gavage. The mice are treated continuously 4 d at intervals of 24 h. The mice of control group are given 1% sodium carboxymethylcellulose (0.15 g/kg) by gavage 1 h after last treatment and sacrificed by cervical dislocation after 24 h.
Preparation of Blood Serum: take blood from mouse carotid artery, stand the blood, then make it centrifuged at 3,000 r/min for 15 min to separate out the serum, and put the serum in refrigerator (−20° C.) for storage.
Measuring Indicator and Method: take the prepared serum on Sigma95308 automatic biochemistry analyzer to determine the activity of aspartate transaminase (AST/GOT) and alanine aminotransferase (ALT/GPT).
Impact of Embodiments on Liver Damage

[2] = after taken, cited from earlier work

## CC(=O)Nc1ccc(O)cc1 [Model Group, Acetaminophen]
[1]
  ALT (alanine aminotransferase, ALT/GPT) activity in serum: 87.8 ± 9.5 IU · L^−1
  AST (aspartate transaminase, AST/GOT) activity in serum: 245.6 ± 18.3 IU · L^−1
[2]; liver metabolism
  Share combined with glucuronide: 60%
  Share combined with sulfuric acid: 30%
[2]
  Share metabolized by liver cytochrome P450 oxidase system to NAPQI: 4%-5
  Share of acetaminophen metabolized by the liver: 90%
